One series addresses T1, Ephrin type-A receptor 6 (Mus musculus, UniProt Q62413).
T1 sequence (Q62413 whole entry): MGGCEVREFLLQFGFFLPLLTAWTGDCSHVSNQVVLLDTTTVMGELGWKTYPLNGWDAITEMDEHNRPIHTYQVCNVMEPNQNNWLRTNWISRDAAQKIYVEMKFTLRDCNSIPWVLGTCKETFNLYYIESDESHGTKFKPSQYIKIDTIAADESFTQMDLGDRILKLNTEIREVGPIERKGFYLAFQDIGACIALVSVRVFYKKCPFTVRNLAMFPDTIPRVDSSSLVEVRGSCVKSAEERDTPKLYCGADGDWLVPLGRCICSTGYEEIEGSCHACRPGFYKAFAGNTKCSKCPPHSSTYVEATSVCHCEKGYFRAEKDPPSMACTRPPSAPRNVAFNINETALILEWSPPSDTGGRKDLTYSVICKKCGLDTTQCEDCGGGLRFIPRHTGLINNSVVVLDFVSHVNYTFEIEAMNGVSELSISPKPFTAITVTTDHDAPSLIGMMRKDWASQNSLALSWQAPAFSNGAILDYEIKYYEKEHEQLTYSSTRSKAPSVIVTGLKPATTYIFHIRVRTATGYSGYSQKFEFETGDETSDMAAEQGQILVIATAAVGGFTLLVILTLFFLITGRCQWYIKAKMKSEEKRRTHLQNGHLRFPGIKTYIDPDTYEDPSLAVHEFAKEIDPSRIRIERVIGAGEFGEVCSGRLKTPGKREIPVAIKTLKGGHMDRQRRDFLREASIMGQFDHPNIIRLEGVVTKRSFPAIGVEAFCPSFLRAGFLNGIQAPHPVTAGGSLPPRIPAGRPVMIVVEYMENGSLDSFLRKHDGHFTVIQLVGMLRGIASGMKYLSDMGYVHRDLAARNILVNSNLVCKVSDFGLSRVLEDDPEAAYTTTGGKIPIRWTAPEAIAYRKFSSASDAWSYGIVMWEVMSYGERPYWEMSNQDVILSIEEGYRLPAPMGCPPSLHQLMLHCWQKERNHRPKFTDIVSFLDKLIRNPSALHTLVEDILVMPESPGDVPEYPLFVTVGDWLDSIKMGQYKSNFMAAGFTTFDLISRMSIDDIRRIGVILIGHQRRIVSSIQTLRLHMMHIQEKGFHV
The series can be described thus: Displacement of biotinylated ephrin-A1-Fc from mouse EphA6 Fc preincubated for 1 hr followed by ephrin-A1-FC addition and measured after 4 hrs by ELISA. Background: In an ELISA, binding on a coated surface is turned into a signal by an enzyme label.

A further series deals with HUVEC. The series can be described thus: Cytotoxicity against HUVEC cells after 2 to 16 hrs by LDH assay. The following applies: human, time 2-16 hrs. The series is classed as cell-based.
In the next series the target is T2, Ephrin type-A receptor 8 (Mus musculus, UniProt O09127).
T2 sequence (O09127 whole entry): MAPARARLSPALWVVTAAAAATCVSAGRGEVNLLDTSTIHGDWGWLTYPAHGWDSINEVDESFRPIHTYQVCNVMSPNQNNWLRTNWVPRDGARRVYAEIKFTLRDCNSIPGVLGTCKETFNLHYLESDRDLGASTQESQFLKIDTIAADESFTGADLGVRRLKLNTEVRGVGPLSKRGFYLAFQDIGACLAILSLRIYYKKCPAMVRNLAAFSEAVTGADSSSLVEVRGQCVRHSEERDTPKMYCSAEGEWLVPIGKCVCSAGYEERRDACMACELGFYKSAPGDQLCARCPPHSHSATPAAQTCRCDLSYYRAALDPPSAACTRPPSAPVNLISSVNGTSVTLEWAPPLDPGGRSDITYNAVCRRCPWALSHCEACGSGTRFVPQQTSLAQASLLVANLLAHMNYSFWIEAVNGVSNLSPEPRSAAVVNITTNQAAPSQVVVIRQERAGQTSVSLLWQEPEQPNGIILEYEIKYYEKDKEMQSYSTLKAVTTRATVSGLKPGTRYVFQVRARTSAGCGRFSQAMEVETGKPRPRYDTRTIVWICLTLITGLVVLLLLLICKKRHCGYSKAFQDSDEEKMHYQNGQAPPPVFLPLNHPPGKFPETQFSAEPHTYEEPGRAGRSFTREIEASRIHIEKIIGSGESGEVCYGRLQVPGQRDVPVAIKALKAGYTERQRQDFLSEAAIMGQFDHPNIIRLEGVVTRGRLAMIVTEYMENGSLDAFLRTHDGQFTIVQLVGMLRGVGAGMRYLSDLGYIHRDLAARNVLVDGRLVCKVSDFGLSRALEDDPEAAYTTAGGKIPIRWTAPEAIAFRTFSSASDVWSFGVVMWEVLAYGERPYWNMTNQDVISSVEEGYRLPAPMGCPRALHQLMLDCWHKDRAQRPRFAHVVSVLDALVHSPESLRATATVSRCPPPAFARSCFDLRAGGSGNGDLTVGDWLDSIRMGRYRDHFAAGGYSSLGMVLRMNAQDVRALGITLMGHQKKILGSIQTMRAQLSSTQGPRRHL
The series can be described thus: Displacement of biotinylated ephrin-A1-Fc from mouse EphA8 Fc preincubated for 1 hr followed by ephrin-A1-FC addition and measured after 4 hrs by ELISA.

For `CCNC(=O)O[C@@H]1CC[C@@]2(C)[C@H](CC[C@@H]3[C@@H]2CC[C@]2(C)[C@@H]([C@H](C)CCC(=O)N[C@H](CC(=O)O)Cc4c[nH]c5ccccc45)CC[C@@H]32)C1`, the values for the IC50 at Ephrin type-A receptor 6 and on Ephrin type-A receptor 8 were 18 µM and 7.7 µM, respectively. Moreover, the Activity entry in the series with HUVEC is “Non-Toxic”.

For orientation: IC50 means the concentration at which inhibition is half-maximal. Low readings indicate greater potency, high ones weaker potency.
